The source of these data is ChEMBL document CHEMBL3039007, “Structure-based identification of OATP1B1/3 inhibitors” (Mol Pharmacol, 2013).

Data set [1] has as its target T1, Solute carrier organic anion transporter family member 1B1 (Homo sapiens, UniProt Q9Y6L6).
T1 sequence (Q9Y6L6 whole entry): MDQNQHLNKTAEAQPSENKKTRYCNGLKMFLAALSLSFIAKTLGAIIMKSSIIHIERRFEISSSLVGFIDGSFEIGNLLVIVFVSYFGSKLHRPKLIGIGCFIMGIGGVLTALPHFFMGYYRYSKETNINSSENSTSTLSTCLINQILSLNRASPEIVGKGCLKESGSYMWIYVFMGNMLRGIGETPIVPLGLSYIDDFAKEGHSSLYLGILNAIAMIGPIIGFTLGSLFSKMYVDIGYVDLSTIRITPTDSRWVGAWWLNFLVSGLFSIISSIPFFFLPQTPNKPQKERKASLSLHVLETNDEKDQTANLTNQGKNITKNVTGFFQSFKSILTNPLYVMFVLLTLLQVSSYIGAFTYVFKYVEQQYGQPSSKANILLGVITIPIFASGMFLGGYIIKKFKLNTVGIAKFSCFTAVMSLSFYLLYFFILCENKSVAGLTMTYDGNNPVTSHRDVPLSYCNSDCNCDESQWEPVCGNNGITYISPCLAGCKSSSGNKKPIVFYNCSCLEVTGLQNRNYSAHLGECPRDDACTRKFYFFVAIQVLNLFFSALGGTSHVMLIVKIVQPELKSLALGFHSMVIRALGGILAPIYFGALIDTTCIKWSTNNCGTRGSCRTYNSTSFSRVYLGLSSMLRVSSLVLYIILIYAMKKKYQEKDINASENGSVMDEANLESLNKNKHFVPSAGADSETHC

In data set [2] the target is T1, Solute carrier organic anion transporter family member 1B1. This is another data set of the same source.
Data set [3] concerns the target T2, Solute carrier organic anion transporter family member 1B3 (Homo sapiens, UniProt Q9NPD5).
T2 sequence (Q9NPD5 whole entry): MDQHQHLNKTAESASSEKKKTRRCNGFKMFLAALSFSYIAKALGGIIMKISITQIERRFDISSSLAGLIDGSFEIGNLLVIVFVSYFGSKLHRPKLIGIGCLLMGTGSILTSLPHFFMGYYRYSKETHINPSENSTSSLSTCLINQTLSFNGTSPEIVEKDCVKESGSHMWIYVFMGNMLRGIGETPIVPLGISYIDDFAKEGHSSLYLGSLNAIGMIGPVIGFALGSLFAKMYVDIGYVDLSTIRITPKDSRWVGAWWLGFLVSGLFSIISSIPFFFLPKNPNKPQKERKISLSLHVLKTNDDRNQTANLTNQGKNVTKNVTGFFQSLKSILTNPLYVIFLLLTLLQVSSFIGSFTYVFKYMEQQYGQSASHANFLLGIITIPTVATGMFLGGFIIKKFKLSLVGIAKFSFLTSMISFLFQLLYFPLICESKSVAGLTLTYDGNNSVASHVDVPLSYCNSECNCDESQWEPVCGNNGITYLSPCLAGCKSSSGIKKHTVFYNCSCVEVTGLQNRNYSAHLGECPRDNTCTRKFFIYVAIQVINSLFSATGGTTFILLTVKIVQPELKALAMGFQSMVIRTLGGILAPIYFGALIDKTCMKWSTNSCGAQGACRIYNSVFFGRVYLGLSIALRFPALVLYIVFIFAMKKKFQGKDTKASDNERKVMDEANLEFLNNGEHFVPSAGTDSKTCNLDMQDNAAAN
The settings on record: chinese hamster, cho, 10 µM.

In data set [4] the target is T1, Solute carrier organic anion transporter family member 1B1. Particulars: chinese hamster, cho, 10 µM.
The target of data set [5] is T2, Solute carrier organic anion transporter family member 1B3.
Data set [6] shares this target. This is another data set of the same source.

Each structure is given as a SMILES string.

As to `CC[C@@H](C(=O)[C@@H](C)[C@@H](O)[C@H](C)CCc1ccc(C)c(O)c1C(=O)[O-])[C@H]1O[C@](CC)([C@H]2CC[C@](O)(CC)[C@H](C)O2)C[C@@H]1C.[Na+]` [LASALOCID A SODIUM], the Ki (as a rule, a dissociation constant, usually derived from enzyme kinetics or from competition with a known ligand) is 260 nM in data set [1] and 590 nM in data set [6]. For the same compound, the IC50 (commonly the concentration that inhibits the measured activity by half) in data set [2] was 479 nM; in data set [5], 776 nM. In addition, the residual activity (usually the signal under treatment as a percentage of the control signal) worked out at 6.678% in data set [3] and 10.29% in data set [4].
`COC(=O)c1c(C)c2c(c(C)c1O)OC(=O)c1c(C)c(Cl)c(O)c(Cl)c1O2` [LEOIDIN]: the Ki in data set [1] stood at 80 nM; in data set [6], 1840 nM. Moreover, the results for the concentration for half-maximal inhibition (IC50) in data set [2] and in data set [5] were 145 nM and 2400 nM, respectively. Also, the residual activity in data set [3] is reported as 14.63%; in data set [4], 7.804%.
In the case of `CCCCCc1c2c(cc(O)c1C(=O)O)OC(=O)c1c(cc(OC)cc1C(=O)CCCC)O2` [LOBARIC ACID], the Ki in data set [1] turned out to be 400 nM; in data set [6], 1250 nM. Also, the IC50 in data set [2] is 724 nM; in data set [5], 1620 nM. For the same compound, the residual activity came to 7.572% in data set [3] and 18.31% in data set [4].
Regarding `C=C1[C@@H]2CC[C@@]3(C)[C@H](c4ccoc4)OC(=O)C[C@]13O[C@H]1CC(=O)C(C)(C)[C@H](C(OC(C)=O)C(=O)OC)[C@]12C` (some centres undefined) [METHYL 6-ACETOXYANGOLENSATE], the values for the Ki in data set [1] and in data set [6] were 800 nM and 2920 nM, respectively. Also, the IC50 was 1450 nM in data set [2] and 3800 nM in data set [5]. Also, the figures for the residual activity in data set [3] and in data set [4] were 34.99% and 11.95%, respectively.
As to `CCCCCCCCCc1ccc(OCCOCCOCCOCCOCCOCCOCCOCCOCCO)cc1` [NONOXYNOL 9], the Ki was found to be 1920 nM in data set [1] and 2870 nM in data set [6]. Besides, the values for the half-inhibitory concentration (IC50) in data set [2] and in data set [5] were 3470 nM and 3720 nM, respectively. The residual activity in data set [3] came to 27.96%; in data set [4], 32.74%.
`Cc1cc(O)c(C=O)c2c1C(=O)Oc1c(C)c(O)c3c(c1O2)C(O)OC3=O` (centres undefined) [NORSTICTIC ACID]: the values for the Ki in data set [1] and in data set [6] were 630 nM and 420 nM, respectively. Moreover, the half-maximal inhibitory concentration (IC50) in data set [2] was 1150 nM; in data set [5] it was 550 nM. For the same compound, the results for the residual activity in data set [3] and in data set [4] were 1.823% and 10.9%, respectively.
On to `CCCc1nc(C(C)(C)O)c(C(=O)OCc2oc(=O)oc2C)n1Cc1ccc(-c2ccccc2-c2nnn[nH]2)cc1` [OLMESARTAN MEDOXOMIL], for which the values for the Ki in data set [1] and in data set [6] were 540 nM and 750 nM, respectively. Moreover, the IC50 in data set [2] and in data set [5] was 977 nM in each case. Further, the residual activity in data set [3] came out at 9.702%; in data set [4], 15.39%.
With `C=C1[C@@H]([C@@]2(C)[C@@H](OC(C)=O)CC(=O)O[C@](C)(COC(C)=O)[C@@H]2C(=O)OC)[C@@H](OC=O)[C@H](OC(=O)[C@H](O)[C@H](C)CC)[C@@]2(C)[C@H](c3ccoc3)CC(=O)[C@]12O` [PRIEURIANIN], the Ki in data set [1] stood at 1280 nM; in data set [6] it was 2630 nM. Further, the results for the IC50 in data set [2] and in data set [5] were 2340 nM and 3390 nM, respectively. In addition, the figures for the residual activity in data set [3] and in data set [4] were 25.49% and 22.79%, respectively.
On to `C[C@H]1CC[C@@]2(OC1)O[C@H]1C[C@H]3[C@@H]4CC[C@@H]5C[C@@H](O)CC[C@]5(C)[C@H]4CC[C@]3(C)[C@H]1[C@@H]2C` [SARSASAPOGENIN], for which the Ki came out at 130 nM in data set [1] and 80 nM in data set [6]. For the same compound, the IC50 in data set [2] was 245 nM; in data set [5], 105 nM. In addition, the residual activity in data set [3] came out at 25.69%; in data set [4] it was 50.78%.
As for `COc1c(CC=C(C)C)c2c(c3oc(=O)c(-c4ccc(O)cc4)c(O)c13)C=CC(C)(C)O2` [SCANDENIN], the Ki in data set [1] amounted to 590 nM; in data set [6] it was 560 nM. For the same compound, the IC50 is 1070 nM in data set [2] and 741 nM in data set [5]. The residual activity in data set [3] is 9.001%; in data set [4], 13.79%.
Turning to `COc1cc(C2Oc3cc([C@H]4Oc5cc(O)cc(O)c5C(=O)[C@@H]4O)ccc3OC2CO)ccc1O` (some centres undefined) [SILIBININ], the results for the Ki in data set [1] and in data set [6] were 3370 nM and 3270 nM, respectively. The IC50 in data set [2] was 6170 nM; in data set [5] it was 4270 nM. The residual activity was determined as 46.89% in data set [3] and 54.77% in data set [4].
Regarding `O=C(OC[C@H]1O[C@@H](OC(=O)c2cc(O)c(O)c(OC(=O)c3cc(O)c(O)c(O)c3)c2)[C@H](OC(=O)c2cc(O)c(O)c(OC(=O)c3cc(O)c(O)c(O)c3)c2)[C@@H](OC(=O)c2cc(O)c(O)c(OC(=O)c3cc(O)c(O)c(O)c3)c2)[C@@H]1OC(=O)c1cc(O)c(O)c(OC(=O)c2cc(O)c(O)c(O)c2)c1)c1cc(O)c(O)c(OC(=O)c2cc(O)c(O)c(O)c2)c1` [TANNIC ACID], the Ki in data set [1] is 1460 nM; in data set [6] it was 3230 nM. For the same compound, the IC50 is 2630 nM in data set [2] and 4170 nM in data set [5]. Further, the residual activity in data set [3] came out at 10.59%; in data set [4], 18.66%.
Turning to `CCC(C)C(=O)O[C@@H]1C[C@@]2(C)[C@H](c3ccoc3)OC(=O)CC23OC2(C)O[C@]14[C@]1(C)[C@@H](CC(=O)OC)C5(C)CC1(O)[C@](O)(C5OC(=O)C1(C)OC1C)[C@@H](OC(C)=O)[C@]34O2` (some centres undefined) [UTILIN], the values for the Ki in data set [1] and in data set [6] were 380 nM and 600 nM, respectively. The IC50 in data set [2] is 676 nM; in data set [5] it was 776 nM. In addition, the residual activity in data set [3] is reported as 2.658%; in data set [4], -3.778%.
With `C/C=C(\C)C(=O)O[C@H]1[C@H](OC(C)=O)[C@@]2(CO)C(CC1(C)C)C1=CC[C@@H]3[C@@]4(C)CC[C@H](O[C@@H]5O[C@H](C(=O)O)[C@@H](O[C@@H]6O[C@H](CO)[C@@H](O)[C@H](O)[C@H]6O)[C@H](O)[C@H]5O[C@@H]5O[C@H](CO)[C@@H](O)[C@H](O)[C@H]5O)[C@H](CO)C4CC[C@@]3(C)[C@@]1(C)C[C@H]2O` (stereo partly drawn) [beta-ESCIN], the Ki was 780 nM in data set [1] and 2610 nM in data set [6]. Moreover, the IC50 is 1410 nM in data set [2] and 3390 nM in data set [5]. Also, the residual activity is recorded as 11.66% in data set [3] and 11.04% in data set [4].
